Test results reported in ChEMBL document CHEMBL1152897, “Synthesis and SAR study of novel pseudo-steroids as potent and selective progesterone receptor antagonists” (Bioorg Med Chem Lett, 2009).

Legend:
Progesterone receptor = target: T1, Progesterone receptor (Homo sapiens, UniProt P06401); experiment: Antagonist activity at progesterone receptor in human T47D cells assessed as inhibition of progesterone-induced alkaline phosphatase activity; assay type: functional, cell-based
T1 sequence (P06401 whole entry): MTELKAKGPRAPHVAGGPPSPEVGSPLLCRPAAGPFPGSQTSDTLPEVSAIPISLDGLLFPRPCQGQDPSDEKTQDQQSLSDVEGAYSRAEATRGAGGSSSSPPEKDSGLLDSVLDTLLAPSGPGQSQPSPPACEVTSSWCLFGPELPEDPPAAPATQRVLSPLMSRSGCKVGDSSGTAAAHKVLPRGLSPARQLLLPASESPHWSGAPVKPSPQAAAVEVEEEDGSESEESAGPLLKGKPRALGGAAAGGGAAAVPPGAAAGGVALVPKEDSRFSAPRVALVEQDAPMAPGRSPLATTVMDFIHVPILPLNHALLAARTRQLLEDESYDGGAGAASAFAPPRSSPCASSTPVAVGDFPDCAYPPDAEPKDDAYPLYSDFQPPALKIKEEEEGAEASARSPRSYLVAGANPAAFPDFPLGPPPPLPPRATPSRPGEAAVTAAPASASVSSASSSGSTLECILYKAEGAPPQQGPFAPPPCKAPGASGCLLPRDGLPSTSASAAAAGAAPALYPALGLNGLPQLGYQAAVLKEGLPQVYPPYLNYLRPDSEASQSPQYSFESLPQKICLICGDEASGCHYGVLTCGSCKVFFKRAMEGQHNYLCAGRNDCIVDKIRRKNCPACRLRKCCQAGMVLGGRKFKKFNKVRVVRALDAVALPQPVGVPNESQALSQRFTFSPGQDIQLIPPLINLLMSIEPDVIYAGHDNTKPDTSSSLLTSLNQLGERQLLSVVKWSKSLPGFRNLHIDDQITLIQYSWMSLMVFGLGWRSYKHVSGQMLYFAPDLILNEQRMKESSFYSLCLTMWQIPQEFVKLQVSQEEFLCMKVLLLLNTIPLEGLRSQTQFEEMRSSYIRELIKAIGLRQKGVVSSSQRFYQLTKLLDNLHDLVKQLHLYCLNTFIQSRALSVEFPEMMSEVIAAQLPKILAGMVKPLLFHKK

Glucocorticoid receptor = target: T2, Glucocorticoid receptor (Homo sapiens, UniProt P04150); experiment: Antagonist activity at glucocorticoid receptor in human A549 cells assessed as inhibition of corticoid-induced transcription after 16 hrs by glucocorticoid response element-driven luciferase reporter gene assay; assay type: functional, cell-based
T2 sequence (P04150 whole entry): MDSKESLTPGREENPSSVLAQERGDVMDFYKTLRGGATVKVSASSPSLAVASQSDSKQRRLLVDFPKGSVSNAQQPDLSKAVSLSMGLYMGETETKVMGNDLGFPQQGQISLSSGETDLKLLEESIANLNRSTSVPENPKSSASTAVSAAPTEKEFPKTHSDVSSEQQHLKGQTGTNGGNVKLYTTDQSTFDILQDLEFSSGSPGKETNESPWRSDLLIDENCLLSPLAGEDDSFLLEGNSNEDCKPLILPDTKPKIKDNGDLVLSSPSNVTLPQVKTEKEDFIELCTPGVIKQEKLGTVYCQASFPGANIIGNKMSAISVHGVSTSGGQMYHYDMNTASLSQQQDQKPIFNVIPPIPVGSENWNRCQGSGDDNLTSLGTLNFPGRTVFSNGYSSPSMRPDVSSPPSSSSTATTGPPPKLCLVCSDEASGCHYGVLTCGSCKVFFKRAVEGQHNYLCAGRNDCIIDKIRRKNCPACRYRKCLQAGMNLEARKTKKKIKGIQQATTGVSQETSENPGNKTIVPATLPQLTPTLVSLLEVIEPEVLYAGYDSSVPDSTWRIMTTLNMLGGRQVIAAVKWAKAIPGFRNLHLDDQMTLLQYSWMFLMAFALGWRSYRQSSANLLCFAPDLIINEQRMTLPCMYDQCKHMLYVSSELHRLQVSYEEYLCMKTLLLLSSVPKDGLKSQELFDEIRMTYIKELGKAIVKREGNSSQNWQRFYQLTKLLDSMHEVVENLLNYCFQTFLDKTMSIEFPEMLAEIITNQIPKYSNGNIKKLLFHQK

Rattus norvegicus = experiment: Blockade of progesterone-dependent inhibition of ethinyl estradiol-induced complement C3 expression in po dosed ovariectomized Sprague-Dawley rat uterus; assay type: functional, organism-based

| Compound | IC50 (Progesterone receptor) | IC50 (Glucocorticoid receptor) | IC50 (Rattus norvegicus) |
| --- | --- | --- | --- |
| C=C(C)[C@]1(O)CC[C@H]2[C@@H]3CCC4=CC(=O)CCC4=C3[C@@H](c3ccc(N(C)C)cc3)OC[C@@]21C | 0.3 nM | 150 nM | – |
| CC#C[C@]1(O)CC[C@H]2[C@@H]3CCC4=CC(=O)CCC4=C3[C@@H](c3ccc(OC)cc3)OC[C@@]21C | > 1000 nM | 41 nM | – |
| C=C1CCO[C@]12CC[C@H]1[C@@H]3CCC4=CC(=O)CCC4=C3[C@@H](c3ccc(N(C)C)cc3)OC[C@@]12C | 1 nM | 62 nM | – |
| CN(C)c1ccc([C@H]2OC[C@@]3(C)[C@@H](CC[C@@]3(O)C#Cc3ccccc3)[C@@H]3CCC4=CC(=O)CCC4=C32)cc1 | 60 nM | 102 nM | – |
| CSc1ccc([C@H]2OC[C@@]3(C)[C@@H](CC[C@@]3(O)C(F)(F)C(F)(F)F)[C@@H]3CCC4=CC(=O)CCC4=C32)cc1 | 56 nM | 7 nM | – |
| CN(C)c1ccc([C@H]2OC[C@]3(C)[C@@H](O)CC[C@H]3[C@@H]3CCC4=CC(=O)CCC4=C32)cc1 | 930 nM | 1400 nM | – |
| CN(C)c1ccc([C@H]2OC[C@@]3(C)[C@@H](CC[C@@]3(O)C(F)(F)C(F)(F)F)[C@@H]3CCC4=CC(=O)CCC4=C32)cc1 | 36 nM | 20 nM | – |
| C=C(C)[C@]1(O)CC[C@H]2[C@@H]3CCC4=CC(=O)CCC4=C3[C@@H](c3ccc(S(C)(=O)=O)cc3)OC[C@@]21C | > 1000 nM | > 3000 nM | – |
| C=C1CCO[C@]12CC[C@H]1[C@@H]3CCC4=CC(=O)CCC4=C3[C@@H](c3ccc(OC)cc3)OC[C@@]12C | 7 nM | 132 nM | – |
| CC#C[C@]1(O)CC[C@H]2[C@@H]3CCC4=CC(=O)CCC4=C3[C@@H](c3ccc(N(C)C)cc3)OC[C@@]21C | 34 nM | 17 nM | 16 mg/kg |
| C#C[C@]1(O)CC[C@H]2[C@@H]3CCC4=CC(=O)CCC4=C3[C@@H](c3ccc(N(C)C)cc3)OC[C@@]21C | 33 nM | 68 nM | – |
| COc1ccc([C@H]2OC[C@@]3(C)[C@@H](CC[C@@]3(O)C#Cc3ccc(C(F)(F)F)cc3)[C@@H]3CCC4=CC(=O)CCC4=C32)cc1 | 82 nM | 26 nM | – |
| C=C(C)[C@]1(O)CC[C@H]2[C@@H]3CCC4=CC(=O)CCC4=C3[C@@H](c3ccc(SC)cc3)OC[C@@]21C | 3.3 nM | 58 nM | – |
| C#C[C@]1(O)CC[C@H]2[C@@H]3CCC4=CC(=O)CCC4=C3[C@@H](c3ccc(OC)cc3)OC[C@@]21C | > 1000 nM | 110 nM | – |
| COc1ccc([C@H]2OC[C@@]3(C)[C@@H](CC[C@@]3(O)C#Cc3ccccc3)[C@@H]3CCC4=CC(=O)CCC4=C32)cc1 | 280 nM | 21 nM | – |
| CC#C[C@]1(O)CC[C@H]2[C@@H]3CCC4=CC(=O)CCC4=C3[C@@H](c3ccc(N(C)C)cc3)C[C@@]21C [MIFEPRISTONE] | – | – | 4.6 mg/kg |
